Reference: patent US20100204130A1, “USE OF HUMAN NEUROPEPTIDE AS A THERAPEUTIC AGENT” (priority 2007, published 2010)
Where a SMILES comes first, the peptide text is derived from it.

System: drug-resistant Mycobacterium tuberculosis
Conditions: 5 micrograms per ml

With CC(C)C[C@H](NC(=O)CNC(=O)[C@H](CCC(=O)O)NC(=O)CNC(=O)[C@H](C)N)C(=O)N[C@@H](CC(N)=O)C(=O)N[C@@H](CO)C(=O)N[C@@H](CCC(N)=O)C(=O)N[C@@H](Cc1ccccc1)C(=O)N[C@@H](Cc1c[nH]c2ccccc12)C(=O)N[C@@H](CO)C(=O)N[C@@H](CC(C)C)C(=O)N[C@@H](C)C(=O)N[C@@H](C)C(=O)N1CCC[C@H]1C(=O)N[C@@H](CCC(N)=O)C(=O)N[C@@H](CCCNC(=N)N)C(=O)N[C@@H](Cc1ccccc1)C(N)=O [Neuropeptide AF, Ala-Gly-Glu-Gly-Leu-Asn-Ser-Gln-Phe-Trp-Ser-Leu-Ala-Ala-Pro-Gln-Arg-Phe-NH2] (H-AGEGLNSQFWSLAAPQRF-NH2) the “% inhibition” value was 0.0%.
